Data published in patent US9629918B2, “Folate receptor alpha binding ligands” (PURDUE RESEARCH FOUNDATION, priority 2012, dated 2017).

Tests used:
[1] = biological target: T1, FR-α positive KB cells (Homo sapiens, UniProt P15328); experiment: Binding affinity of ^99mTc conjugates for KB cells (gamma counting)
T1 construct: KB cells, a human nasopharyngeal cancer cell line known to over-express FR-α; host or cells: KB cells
Procedure: For evaluation of its affinity for FR-α, increasing concentrations of ^99mTc-DMTHF-chelate were incubated with KB cells, a human nasopharyngeal cancer cell line known to over-express FR-α. The level of bound radioactivity was analyzed using a gamma counter.
KB or CHO-β cells (100,000 cells/well in 500 μl) were plated into 24 well Falcon plates and allowed to form adherent monolayers (ca. 70% confluent) overnight. […] Cells were washed with PBS (3×1.0 mL), after which 0.25 M aqueous NaOH (0.5 ml) was added to dissolve the cells. After 10 minutes incubation, 450 μl from each well were transferred polypropylene tubes and counted for radioactivity in a γ counter (Packard Instrument Company). The binding affinity, Kd, was calculated using GraphPad Prism 4 by plotting cell bound radioactivity versus the concentration of radiotracer added.

[2] = biological target: T1, FR-α positive KB cells; experiment: Flow cytometry analysis of dye conjugate binding to KB cells; format: cell-based; details: 100 nM, 1 h at 37° C
Procedure: (§1) KB cells were allowed to form monolayers in a T75 falcon flask for 48 hours in folate-deficient RPMI 1640 culture medium (FDRPMI). The confluent cells were trypsinized and 1×10^6 cells were transferred into each Eppendorf tube and centrifuged. Spent medium was removed and the pelleted cells were resuspended in fresh medium containing either DMTHF-DyLight™ 680 conjugate (100 nM) or folate-DyLight™ 680 conjugate (100 nM), either in the presence or absence of 100-fold molar excess of free folic acid. After incubation for 1 h at 37° C., the cells were washed 3 times with PBS (0.5 ml) and re-suspended in fresh PBS (0.4 ml). Bound fluorescence was analyzed using a flow cytometer (Cytomics F500; Beckman Coulter).

[3] = test system: M109 tumor and DSS induced ulcerative colitis; experiment: Optical imaging of Balb/C mice bearing M109 tumor with DSS induced ulcerative colitis; format: in vivo, mouse; details: 4 h after administration
Procedure: (§2) Radioimages of murine models of human diseases were acquired with a Kodak Imaging Station coupled to a CCD camera operated with Kodak Molecular Imaging Software v 4.0 (Carestream Molecular Imaging). Abdomens were generally shielded with a lead plate in order to mask radioactivity emitted from the kidneys and bladder. The parameters used for radioimaging were: acquisition time=2 min, f-stop=4, focal plane=7, FOV=200, binning=4. For white light imaging, the parameters were: acquisition time=0.05 s, f-stop=11, focal plane=7, FOV=200, with no binning. For fluorescent imaging, abdomens were shielded with black construction paper to block fluorescence emitted from the kidneys and bladder. The parameters used were: acquisition time=30 s, excitation filter of λ=625 nm, emission filter of λ=700 nm, f-stop=4, focal plane=7, FOV=200, and binning=4.
Six week old female Balb/c mice were purchased from Harlan laboratories and maintained on a folate deficient diet (Harlan-Teklad, Wis.). After one week of acclimation, the mice were inoculated subcutaneously on the shoulder with 0.1 mL of M109 tumor cell suspension (1×10^6 cells). Subcutaneous tumor growth was monitored daily and on day 10 post tumor inoculation, 4% dextran sulfate sodium was added to their drinking water for 6 days to induce experimental ulcerative colitis. […]

[4] = test system: xenograft KB tumor; experiment: Optical imaging of athymic nude mice bearing KB tumor; format: in vivo, mouse; details: athymic nude mice with KB tumor, 4 h after administration
Procedure: as §2
Animals bearing tumors and/or inflammatory diseases were prepared as described above and injected intraperitoneally with DMTHF-DyLight™ 680 or folate-DyLight™ 680 conjugate (4 nmol in 100 μl of PBS). […] To evaluate accumulation of test compounds in specific organs/tissues, animals were dissected and organs/tissues of interest were excised and selected regions of interest were analyzed in the Kodak Imaging Station.

[5] = biological target: T2, FR-β positive rat peritoneal macrophages (Rattus norvegicus, UniProt D4A4S5); experiment: Flow cytometry analysis of dye conjugate binding to rat peritoneal macrophages; format: cell-based; details: 100 nM, 1 h at 37° C
T2 construct: from tissue; host or cells: CD11b+ peritoneal macrophages from Lewis rats
Procedure: as §1
For similar analysis of rat peritoneal macrophages, experimental adjuvant-induced arthritis was induced in Lewis rats according to a previously reported procedure. After 25 days of arthritis induction, the rats were sacrificed by CO2 asphyxiation and peritoneal macrophages were harvested by injecting 60 mL PBS into the peritoneal cavity, and after brief massage of the abdomen, removing the cells using the injection syringe. Peritoneal cells were transferred to Eppendorf tubes, washed and stained as described above, except CD11b+ macrophages that were identified by co-staining with anti-CD 11b-PE (phycoerythrin-labeled antibody to CD11b).

[6] = biological target: T3, FR-β positive human peripheral blood monocytes (Homo sapiens, UniProt P14207); experiment: Flow cytometry analysis of human peripheral blood monocytes; format: cell-based; details: 100 nM, 1 h at 37° C
T3 construct: Human peripheral blood monocytes were isolated from whole human blood by a known procedures; from tissue; host or cells: human peripheral blood mononuclear cells from healthy volunteers (CD11b+ monocytes)
Procedure: Human peripheral blood monocytes were isolated from whole human blood by a known procedures. Briefly, whole human blood in anticoagulant was collected from healthy volunteers following informed consent and the mononuclear cells were separated by Ficoll-Paque centrifugation. Cells were re-suspended in Eppendorf tubes in FDRPMI medium containing either DMTHF-Oregon Green™ 488 (100 nM) or folate-Oregon Green™ 488 (100 nM) plus CD 11b Tricolor to label human monocytes. For competition studies 100-fold molar excess of free folic acid was included in the suspension. After incubation for 1 h at 37° C., the cells were washed 3 times with PBS (0.5 ml) and re-suspended in fresh PBS (0.4 ml). Bound fluorescence was analyzed by flow cytometry as described above.

[7] = test system: RAW 264.7 cells; experiment: In vitro cytotoxicity assay ([^3H]-thymidine incorporation) in RAW 264.7 cells; format: cell-based; details: murine macrophage cell line
Procedure: (§3) KB, RAW or IGROV cells were seeded in 24-well (100,000 cells/well) Falcon plates and allowed to form monolayers overnight. Spent medium was then replaced with fresh medium (0.5 mL) containing increasing concentrations of drug conjugate in the presence or absence of excess folic acid, and cells were incubated for an additional 2 h at 37° C. Cells were washed 3× with fresh medium (0.5 mL) and incubated in fresh medium (0.5 mL) for another 66 h at 37° C. Spent medium in each well was replaced with fresh medium (0.5 mL) containing [^3H]-thymidine ([…]) and the cells were incubated for additional 4 h at 37° C. to allow [^3H]-thymidine incorporation. Cells were then rinsed with medium (3×0.5 mL) and treated with 5% trichloroacetic acid (0.5 mL) for 10 min at room temperature. After replacing trichloroacetic acid with 0.25 N NaOH (0.5 mL), cells were transferred to individual scintillation vials containing Ecolume scintillation cocktail (3.0 mL) and counted in a liquid scintillation counter. IC50 values were calculated by plotting %[^3H]-thymidine incorporation versus log concentration of DMTHF-EC-119-drug conjugate in GraphPad Prism 4.

[8] = test system: KB cells; experiment: In vitro cytotoxicity assay ([^3H]-thymidine incorporation) in KB cells; format: cell-based, human; details: for IC50: 2 h pulse, additional 66 h incubation
Procedure: The in vitro toxicity of DMTHF-EC-119-TubH, compound 6a, (See FIG. 15) was analyzed in KB cells which were pulsed for 2 h with increasing concentrations of DMTHF-EC-119-TubH in the presence or absence of 100 μM folic acid. After washing to remove unbound conjugate, cells were incubated for an additional 66 h in fresh medium before addition of tritiated thymidine.
as §3

[9] = test system: IGROV cells; experiment: In vitro cytotoxicity assay ([^3H]-thymidine incorporation) in IGROV cells; format: cell-based, human
Procedure: as §3

T1 sequence (P15328 25-234): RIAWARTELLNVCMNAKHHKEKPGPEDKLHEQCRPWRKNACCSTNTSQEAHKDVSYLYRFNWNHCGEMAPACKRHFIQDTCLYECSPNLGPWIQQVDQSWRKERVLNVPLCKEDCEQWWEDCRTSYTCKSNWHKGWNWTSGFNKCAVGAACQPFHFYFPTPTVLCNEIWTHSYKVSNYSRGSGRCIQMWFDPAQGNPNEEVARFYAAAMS
T3 sequence (P14207 17-230): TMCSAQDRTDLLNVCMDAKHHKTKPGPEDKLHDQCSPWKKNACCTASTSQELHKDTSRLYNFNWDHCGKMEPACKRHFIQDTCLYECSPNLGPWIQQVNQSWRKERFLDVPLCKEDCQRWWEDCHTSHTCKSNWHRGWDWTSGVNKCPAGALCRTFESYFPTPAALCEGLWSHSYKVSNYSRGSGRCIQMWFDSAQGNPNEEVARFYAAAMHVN
T2 sequence (D4A4S5 21-252): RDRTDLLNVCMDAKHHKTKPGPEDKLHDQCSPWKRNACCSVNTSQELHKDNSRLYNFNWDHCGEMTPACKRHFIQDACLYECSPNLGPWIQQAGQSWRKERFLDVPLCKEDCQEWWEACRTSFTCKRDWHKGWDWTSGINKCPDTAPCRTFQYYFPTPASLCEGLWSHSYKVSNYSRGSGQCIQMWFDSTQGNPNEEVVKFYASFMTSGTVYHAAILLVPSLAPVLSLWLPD

Molecule | binding to FR-α+ human KB cells [2] | binding to CD11b+ rat peritoneal macrophages (FR-β) [5] | shift in the CD11b+ subpopulation of human peripheral blood leucocytes (FR-β) [6] | IC50 [8] | IC50 [9] | further results
Nc1nc2ncc(CNc3ccc(C(=O)N[C@H](CCC(=O)NC[C@H](N)C(=O)N[C@@H](CC(=O)O)C(=O)N[C@@H](CS)C(=O)O)C(=O)O)cc3)nc2c(=O)[nH]1 [EC20, pteroic acid-Glu-DAP-Asp-Cys] |  |  |  |  |  | competition of KB cell binding by free folic acid ([1]; 100-fold molar excess of free folic acid): competed by excess free folic acid; Kd ([1]; KB cells, 1 hour at 37° C, cell bound radioactivity, read-out: apparent Kd): 23 nM
N^5,N^10-Dimethyl Tetrahydrofolate-DyLight™ 680 [DMTHF-DyLight™ 680] | binds avidly | no measurable affinity |  |  |  | fluorescent uptake, ROI analysis of organs/tissues [3]: accumulated mainly in tumors; fluorescent uptake, optical imaging [4]: tumor selective uptake
N^5,N^10-Dimethyl tetrahydrofolate-Oregon Green™ 488 [DMTHF-Oregon Green] |  |  | did not |  |  | 
CN(CC1CNc2nc(N)[nH]c(=O)c2N1C)c1ccc(C(=O)N[C@@H](CCC(=O)O)C(=O)O)cc1 (stereo partly shown) [DMTHF, N^5,N^10-dimethyl-tetrahydrofolic acid] | binds FR-α | little affinity for FR-β | lack of affinity |  |  | 
CCC1(O)CC2CN(CCc3c([nH]c4ccccc34)[C@](C(=O)OC)(c3cc4c(cc3OC)N(C)[C@@H]3[C@](O)(C(=O)NNC(=O)OCCSSC[C@H](NC(=O)[C@H](CC(=O)O)NC(=O)[C@H](CC(=O)O)NC(=O)[C@H](CCCNC(=N)N)NC(=O)[C@H](CC(=O)O)NC(=O)CC[C@H](NC(=O)c5ccc(N(C)CC6CNc7nc(N)[nH]c(=O)c7N6C)cc5)C(=O)O)C(=O)O)[C@@H](O)[C@@]5(CC)C=CCN6CC[C@@]43[C@H]65)C2)C1 (stereo partly shown) [DMTHF-EC-119-DAVBH, DMTHF-EC-119-desacetylvinblastine hydrazide] |  |  |  | 42 nM | ~1 µM | cytotoxicity in RAW 264.7 cells [7]: did not show any cytotoxicity
CCCC(=O)OCN(C(=O)[C@@H](NC(=O)[C@H]1CCCCN1C)C(C)CC)[C@H](C[C@@H](OC(C)=O)c1nc(C(=O)N[C@@H](Cc2ccc(O)cc2)C[C@H](C)C(=O)NNC(=O)OCCSSC[C@H](NC(=O)[C@H](CC(=O)O)NC(=O)[C@H](CC(=O)O)NC(=O)[C@H](CCCNC(=N)N)NC(=O)[C@H](CC(=O)O)NC(=O)CC[C@H](NC(=O)c2ccc(N(C)CC3CNc4nc(N)[nH]c(=O)c4N3C)cc2)C(=O)O)C(=O)O)cs1)C(C)C (stereo partly shown) [DMTHF-EC-119-TubH, DMTHF-EC-119-tubulysin B hydrazide] |  |  |  | 41 nM | ~120 µM | effect of excess folic acid on cytotoxicity ([8]; 100 μM folic acid): inhibited by excess folic acid
